Assay results: patent publication US8354402B2, “Polyarylcarboxamides useful as lipid lowering agents” (Janssen Pharmaceutica N.V., priority 2000, dated 2013)

These compounds were tested on ApoB secretion, HepG2 cells (assay: Quantification of the secretion of ApoB (HepG2 cells, immunoprecipitation, scintillation counting)). Details: 24 hours of incubation, listed as 238.
Assay type: cell-based
Procedure, shortened: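 HepG2 cells in MEM Rega 3 with 10% FCS were treated at 70% confluency with compound (DMSO 0.4% final) for 24 h. Medium ApoB was immunoprecipitated with sheep anti-apoB then rabbit anti-sheep antibody (24 h each, 8° C), and pellet radioactivity was counted by liquid scintillation to give IC50.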

| Compound | pIC50 |
| --- | --- |
| COC(=O)C(c1ccccc1)C1CCN(c2ccc(NC(=O)c3ccccc3-c3ccc(C(C)(C)C)cc3)cc2)CC1 (centres unmarked) [Co. No. 238] | 7.824 |

Same assay, conditions: 24 hours of incubation, listed as 240

| Compound | pIC50 |
| --- | --- |
| COC(=O)C(c1ccccc1)N1CCN(c2ccc(NC(=O)c3ccccc3-c3ccc(C(F)(F)F)cc3)cc2)CC1 (centres unmarked) [Co. No. 240] | 7.982 |

Same assay, conditions: Homo sapiens, 24 hours of incubation

| Compound | IC50 |
| --- | --- |
| COC(=O)N(c1ccccc1)C1CCN(c2ccc(NC(=O)c3ccccc3-c3ccc(C(F)(F)F)cc3)cc2)CC1 [Co. No. 251] | 9.64 nM |
| CCNC(=O)N(c1ccccc1)C1CCN(c2ccc(NC(=O)c3ccccc3-c3ccc(C(F)(F)F)cc3)cc2)CC1 [Co. No. 252] | 12.2 nM |
| CC(=O)N(c1ccccc1)C1CCN(c2ccc(NC(=O)c3ccccc3-c3ccc(C(F)(F)F)cc3)cc2)CC1 [Co. No. 253] | 130 nM |

Same assay, conditions: Homo sapiens, HepG2, 24 h, 24 hours of incubation

| Compound | IC50 |
| --- | --- |
| COC(=O)C(c1ccccc1)N1CCN(c2ccc(NC(=O)c3c(F)cccc3-c3ccc(C(F)(F)F)cc3)cc2)CC1 (centres unmarked) [Co. No. 187] | 41.1 nM |
| COC(=O)C(c1ccccc1)N1CCN(c2ccc(NC(=O)c3c(C)cccc3-c3ccc(C(F)(F)F)cc3)cc2)CC1 (centres unmarked) [Co. No. 188] | 10 nM |
| COC(=O)C(c1ccccc1)N1CCN(c2ccc(NC(=O)c3cc(C)ccc3-c3ccc(C(F)(F)F)cc3)cc2)CC1 (centres unmarked) [Co. No. 189] | 105 nM |
| COC(=O)C(c1ccccc1)N1CCN(c2ccc(NC(=O)c3cccc(C)c3-c3ccc(C(F)(F)F)cc3)cc2)CC1 (centres unmarked) [Co. No. 190] | 6.41 nM |
| COC(=O)C(c1ccccc1)N1CCN(c2ccc(NC(=O)c3cc(Cl)ccc3-c3ccc(C(F)(F)F)cc3)cc2)CC1 (centres unmarked) [Co. No. 191] | 7.19 nM |
| COC(=O)C(c1ccccc1)N1CCN(c2ccc(NC(=O)c3ccc(Cl)cc3-c3ccc(C(F)(F)F)cc3)cc2)CC1 (centres unmarked) [Co. No. 192] | 158 nM |
| COC(=O)C(c1ccccc1)N1CCN(c2ccc(NC(=O)c3cc(OC)c(OC)cc3-c3ccc(C(F)(F)F)cc3)cc2)CC1 (centres unmarked) [Co. No. 193] | 235 nM |
| CCNC(=O)C(c1ccccc1)N1CCN(c2ccc(NC(=O)c3ccc(C)cc3-c3ccc(C(F)(F)F)cc3)cc2)CC1 (centres unmarked) [Co. No. 194] | 43 nM |
| CCNC(=O)C(c1ccccc1)N1CCN(c2ccc(NC(=O)c3cc(OC)ccc3-c3ccc(C(F)(F)F)cc3)cc2)CC1 (centres unmarked) [Co. No. 195] | 89.7 nM |
| CCNC(=O)C(c1ccccc1)N1CCN(c2ccc(NC(=O)c3c(F)cccc3-c3ccc(C(F)(F)F)cc3)cc2)CC1 (centres unmarked) [Co. No. 196] | 100 nM |
| CCNC(=O)C(c1ccccc1)N1CCN(c2ccc(NC(=O)c3c(C)cccc3-c3ccc(C(F)(F)F)cc3)cc2)CC1 (centres unmarked) [Co. No. 197] | 16.5 nM |
| CCNC(=O)C(c1ccccc1)N1CCN(c2ccc(NC(=O)c3cc(C)ccc3-c3ccc(C(F)(F)F)cc3)cc2)CC1 (centres unmarked) [Co. No. 198] | 73.1 nM |
| CCNC(=O)C(c1ccccc1)N1CCN(c2ccc(NC(=O)c3cc(Cl)ccc3-c3ccc(C(F)(F)F)cc3)cc2)CC1 (centres unmarked) [Co. No. 200] | 80.2 nM |
| CCNC(=O)C(c1ccccc1)N1CCN(c2ccc(NC(=O)c3ccc(Cl)cc3-c3ccc(C(F)(F)F)cc3)cc2)CC1 (centres unmarked) [Co. No. 201] | < 30 nM |
| CCNC(=O)C(c1ccccc1)N1CCN(c2ccc(NC(=O)c3cc(OC)c(OC)cc3-c3ccc(C(F)(F)F)cc3)cc2)CC1 (centres unmarked) [Co. No. 202] | 184 nM |
| COC(=O)C(c1ccccc1)N1CCN(c2cc(F)c(NC(=O)c3ccccc3-c3ccc(C(F)(F)F)cc3)c(F)c2)CC1 (centres unmarked) [Co. No. 204] | 428 nM |
| COC(=O)C(c1ccccc1)N1CCN(c2ccc(NC(=O)c3ccccc3-c3ccc(C(F)(F)F)cc3)cc2Cl)CC1 (centres unmarked) [Co. No. 205] | 47.5 nM |
| COC(=O)C(c1ccccc1)N1CCN(c2ccc(NC(=O)c3ccccc3-c3ccc(C(F)(F)F)cc3)c(C(F)(F)F)c2)CC1 (centres unmarked) [Co. No. 206] | 783 nM |
| COC(=O)C(c1ccccc1)N1CCN(c2ccc(NC(=O)c3ccccc3-c3ccc(C(F)(F)F)cc3)c(Cl)c2)CC1 (centres unmarked) [Co. No. 207] | < 30 nM |

| Compound | IC50 |
| --- | --- |
| COC(=O)C(c1ccccc1)N1CCN(c2ccc(NC(=O)c3ccccc3-c3ccc(C(F)(F)F)cc3)c(C)c2)CC1 (centres unmarked) [Co. No. 208] | 7.48 nM |
| COC(=O)C(c1ccccc1)N1CCN(c2cc(C)c(NC(=O)c3ccccc3-c3ccc(C(F)(F)F)cc3)c(C)c2)CC1 (centres unmarked) [Co. No. 209] | 7.96 nM |
| COC(=O)C(c1ccccc1)N1CCN(c2ccc(NC(=O)c3ccccc3-c3ccc(C(F)(F)F)cc3)cc2C(F)(F)F)CC1 (centres unmarked) [Co. No. 210] | 483 nM |
| COC(=O)C(c1ccccc1)N1CCN(c2ccc(NC(=O)c3ccccc3-c3ccc(C(F)(F)F)cc3)cc2C)CC1 (centres unmarked) [Co. No. 211] | 19.9 nM |
| COC(=O)C(c1ccccc1)N1CCN(c2ccc(NC(=O)c3ccccc3-c3ccc(C(F)(F)F)cc3)c(F)c2)CC1 (centres unmarked) [Co. No. 212] | < 30 nM |
| CCNC(=O)C(c1ccccc1)N1CCN(c2ccc(NC(=O)c3ccccc3-c3ccc(C(F)(F)F)cc3)cc2Cl)CC1 (centres unmarked) [Co. No. 213] | < 30 nM |
| CCNC(=O)C(c1ccccc1)N1CCN(c2ccc(NC(=O)c3ccccc3-c3ccc(C(F)(F)F)cc3)c(Cl)c2)CC1 (centres unmarked) [Co. No. 214] | < 30 nM |
| CCNC(=O)C(c1ccccc1)N1CCN(c2ccc(NC(=O)c3ccccc3-c3ccc(C(F)(F)F)cc3)c(C)c2)CC1 (centres unmarked) [Co. No. 215] | < 30 nM |
| CCNC(=O)C(c1ccccc1)N1CCN(c2cc(C)c(NC(=O)c3ccccc3-c3ccc(C(F)(F)F)cc3)c(C)c2)CC1 (centres unmarked) [Co. No. 216] | 47.1 nM |
| CCNC(=O)C(c1ccccc1)N1CCN(c2ccc(NC(=O)c3ccccc3-c3ccc(C(F)(F)F)cc3)cc2C(F)(F)F)CC1 (centres unmarked) [Co. No. 217] | 2690 nM |
| CCNC(=O)C(c1ccccc1)N1CCN(c2ccc(NC(=O)c3ccccc3-c3ccc(C(F)(F)F)cc3)cc2C)CC1 (centres unmarked) [Co. No. 218] | < 30 nM |
| CCNC(=O)C(c1ccccc1)N1CCN(c2ccc(NC(=O)c3ccccc3-c3ccc(C(F)(F)F)cc3)c(F)c2)CC1 (centres unmarked) [Co. No. 219] | 78.5 nM |
| CC(C)=CCOC(=O)C(c1ccccc1)N1CCC(c2ccc(NC(=O)c3ccccc3-c3ccc(C(F)(F)F)cc3)cc2)CC1 (centres unmarked) [Co. No. 220] | < 30 nM |
| O=C(Nc1ccc(C2CCN(C(C(=O)OCCCc3ccccc3)c3ccccc3)CC2)cc1)c1ccccc1-c1ccc(C(F)(F)F)cc1 (centres unmarked) [Co. No. 221] | < 30 nM |
| CC(C)OC(=O)C(c1ccccc1)N1CCC(c2ccc(NC(=O)c3ccccc3-c3ccc(C(F)(F)F)cc3)cc2)CC1 (centres unmarked) [Co. No. 223] | 370 nM |
| CCC(CC)OC(=O)C(c1ccccc1)N1CCC(c2ccc(NC(=O)c3ccccc3-c3ccc(C(F)(F)F)cc3)cc2)CC1 (centres unmarked) [Co. No. 224] | 557 nM |
| C#CCOC(=O)C(c1ccccc1)N1CCC(c2ccc(NC(=O)c3ccccc3-c3ccc(C(F)(F)F)cc3)cc2)CC1 (centres unmarked) [Co. No. 225] | 67.6 nM |
| CC(C)CCOC(=O)C(c1ccccc1)N1CCC(c2ccc(NC(=O)c3ccccc3-c3ccc(C(F)(F)F)cc3)cc2)CC1 (centres unmarked) [Co. No. 227] | 187 nM |
| CCc1ccc(-c2ccccc2C(=O)Nc2ccc(N3CCC(C(C(=O)OC)c4ccccc4)CC3)cc2)cc1 (centres unmarked) [Co. No. 231] | < 30 nM |

| Compound | IC50 |
| --- | --- |
| COC(=O)C(c1ccccc1)C1CCN(c2ccc(NC(=O)c3ccccc3-c3ccc(CC(C)C)cc3)cc2)CC1 (centres unmarked) [Co. No. 233] | < 30 nM |
| CCc1ccc(-c2c(C)cccc2C(=O)Nc2ccc(N3CCC(C(C(=O)OC)c4ccccc4)CC3)cc2)cc1 (centres unmarked) [Co. No. 234] | < 30 nM |
| COC(=O)C(c1ccccc1)C1CCN(c2ccc(NC(=O)c3cccc(C)c3-c3ccc(C(C)C)cc3)cc2)CC1 (centres unmarked) [Co. No. 235] | < 30 nM |
| COC(=O)C(c1ccccc1)C1CCN(c2ccc(NC(=O)c3cccc(C)c3-c3ccc(CC(C)C)cc3)cc2)CC1 (centres unmarked) [Co. No. 236] | 21.7 nM |
| COC(=O)C(c1ccccc1)C1CCN(c2ccc(NC(=O)c3cccc(C)c3-c3ccc(C(C)(C)C)cc3)cc2)CC1 (centres unmarked) [Co. No. 237] | < 30 nM |
| CCOC(=O)C(c1ccccc1)C1CCN(c2ccc(NC(=O)c3ccccc3-c3ccc(C(F)(F)F)cc3)cc2)CC1 (centres unmarked) [Co. No. 243] | < 30 nM |
| CC(C)=CCOC(=O)C(c1ccccc1)C1CCN(c2ccc(NC(=O)c3ccccc3-c3ccc(C(F)(F)F)cc3)cc2)CC1 (centres unmarked) [Co. No. 245] | 525 nM |
| O=C(Nc1ccc(N2CCC(C(C(=O)OCCCc3ccccc3)c3ccccc3)CC2)cc1)c1ccccc1-c1ccc(C(F)(F)F)cc1 (centres unmarked) [Co. No. 246] | 173 nM |
| CCC(CC)OC(=O)C(c1ccccc1)C1CCN(c2ccc(NC(=O)c3ccccc3-c3ccc(C(F)(F)F)cc3)cc2)CC1 (centres unmarked) [Co. No. 247] | > 3000 nM |
| C#CCOC(=O)C(c1ccccc1)C1CCN(c2ccc(NC(=O)c3ccccc3-c3ccc(C(F)(F)F)cc3)cc2)CC1 (centres unmarked) [Co. No. 248] | 68.5 nM |
| CC(C)CCOC(=O)C(c1ccccc1)C1CCN(c2ccc(NC(=O)c3ccccc3-c3ccc(C(F)(F)F)cc3)cc2)CC1 (centres unmarked) [Co. No. 249] | > 3000 nM |
| O=C(Nc1ccc(N2CCC(C(C(=O)OCCc3ccccc3)c3ccccc3)CC2)cc1)c1ccccc1-c1ccc(C(F)(F)F)cc1 (centres unmarked) [Co. No. 250] | 233 nM |
| O=C(Nc1ccc(N2CCC(C(C(=O)NCc3ccccc3)c3ccc(F)cc3)CC2)cc1)c1ccccc1-c1ccc(C(F)(F)F)cc1 (centres unmarked) [Co. No. 254] | 28.8 nM |
| CC(C)(C)c1ccc(-c2ccccc2C(=O)Nc2ccc(N3CCC(C(C(=O)NCc4ccccc4)c4ccc(F)cc4)CC3)cc2)cc1 (centres unmarked) [Co. No. 255] | 5.04 nM |
| CCNC(=O)C(c1ccc(F)cc1)C1CCN(c2ccc(NC(=O)c3ccccc3-c3ccc(C(F)(F)F)cc3)cc2)CC1 (centres unmarked) [Co. No. 256] | 15.1 nM |
| CCNC(=O)C(c1ccc(F)cc1)C1CCN(c2ccc(NC(=O)c3ccccc3-c3ccc(C(C)(C)C)cc3)cc2)CC1 (centres unmarked) [Co. No. 257] | 13.9 nM |
| COC(=O)C(c1ccccc1Cl)N1CCN(c2ccc(NC(=O)c3ccccc3-c3ccc(C(F)(F)F)cc3)cc2)CC1 (centres unmarked) [Co. No. 258] | 139 nM |
| COC(=O)C(c1ccc(Cl)cc1Cl)N1CCN(c2ccc(NC(=O)c3ccccc3-c3ccc(C(F)(F)F)cc3)cc2)CC1 (centres unmarked) [Co. No. 259] | 420 nM |
| COC(=O)C(c1cccc(Cl)c1)N1CCN(c2ccc(NC(=O)c3ccccc3-c3ccc(C(F)(F)F)cc3)cc2)CC1 (centres unmarked) [Co. No. 260] | < 30 nM |
